Test results from the NIST ThermoML archive (doi:10.1016/j.jct.2006.09.001).
Where “and” joins values, the source holds several entries; their conditions need not be identical. Equal values may be shown once.

Columns and labels:
[1] = for Normal melting temperature: DTA
[2] = Molar enthalpy of transition or fusion; conditions: Crystal; DSC

OC[c-]1cccc1.[Fe+2].c1cc[cH-]c1 [(hydroxymethyl)ferrocene]
[1]
Conditions	vapor or sublimation pressure
313.3 K, Crystal	0.00011 kPa
316.7 K, Crystal	0.00015 kPa
320.4 K, Crystal	0.00025 kPa
323.3 K, Crystal	0.00036 kPa
327.3 K, Crystal	0.00056 kPa
330.4 K, Crystal	0.00079 kPa and 0.00078 kPa
333.7 K, Crystal	0.00116 kPa
333.8 K, Crystal	0.00111 kPa
335.9 K, Crystal	0.0015 kPa
336.2 K, Crystal	0.00149 kPa
339.8 K, Crystal	0.00218 kPa
341.1 K, Crystal	0.00254 kPa
342 K, Crystal	0.0029 kPa
343.3 K, Crystal	0.00329 kPa
346 K, Crystal	0.00416 kPa
347.3 K, Crystal	0.00468 kPa
347.4 K, Crystal	0.00492 kPa
353.2 K, Liquid	0.00788 kPa
355.2 K, Liquid	0.00938 kPa
357.3 K, Liquid	0.0104 kPa
358.9 K, Liquid	0.01181 kPa
359.6 K, Liquid	0.01286 kPa
361.6 K, Liquid	0.01452 kPa
363.4 K, Liquid	0.01668 kPa
364.7 K, Liquid	0.01879 kPa
366.1 K, Liquid	0.02236 kPa
366.5 K, Liquid	0.02159 kPa
368.9 K, Liquid	0.02708 kPa
369 K, Liquid	0.02499 kPa
370.5 K, Liquid	0.02709 kPa
371.8 K, Liquid	0.03178 kPa
372.5 K, Liquid	0.03208 kPa
374 K, Liquid	0.03745 kPa
375.6 K, Liquid	0.03813 kPa
377 K, Liquid	0.04507 kPa
379.7 K, Liquid	0.05509 kPa
383.7 K, Liquid	0.06949 kPa
385 K, Liquid	0.07524 kPa
386.8 K, Liquid	0.08377 kPa
389.6 K, Liquid	0.09595 kPa
393.7 K, Liquid	0.1301 kPa

Conditions	Normal melting temperature [°C]
[1], Crystal	79.1

Conditions	Molar enthalpy of transition or fusion [kcal/mol]
[2]	5.66

O=C(c1ccccc1)c1ccc[cH-]1.[Fe+2].c1cc[cH-]c1 [benzoylferrocene]
[1], Transpiration method
Conditions	vapor or sublimation pressure [kPa]
342.3 K, Crystal	2.2e-05
347.2 K, Crystal	3.8e-05
350.2 K, Crystal	5.3e-05
350.9 K, Crystal	5.8e-05
353 K, Crystal	7.5e-05
356 K, Crystal	9.7e-05
357.8 K, Crystal	0.000123
360.3 K, Crystal	0.000164
363 K, Crystal	0.00021
364 K, Crystal	0.000246
366.4 K, Crystal	0.000313
370 K, Crystal	0.000441
371.7 K, Crystal	0.000553
373.6 K, Crystal	0.000674
377.3 K, Crystal	0.000963
379.3 K, Crystal	0.001207
384 K, Liquid	0.00187
386.2 K, Liquid	0.00223
389.1 K, Liquid	0.0027
392.4 K, Liquid	0.00338
396 K, Liquid	0.00428
397.9 K, Liquid	0.00488
402 K, Liquid	0.00618
402.6 K, Liquid	0.00664
404.8 K, Liquid	0.00742
408.8 K, Liquid	0.00977
408.9 K, Liquid	0.00961
410.6 K, Liquid	0.01054
413.6 K, Liquid	0.01254
416.8 K, Liquid	0.01548
419.7 K, Liquid	0.01891
423.3 K, Liquid	0.02256
426.6 K, Liquid	0.02806
429.6 K, Liquid	0.03229

Conditions	Normal melting temperature [°C]
[1], Crystal	109.5

Conditions	Molar enthalpy of transition or fusion [kcal/mol]
[2]	7.15

[Fe+2].c1cc[cH-]c1.c1ccc(C[c-]2cccc2)cc1 [benzylferrocene]
[1], Crystal
Conditions	vapor or sublimation pressure [kPa]
311.7 K	1.2e-05
313 K	1.3e-05
318 K	2.7e-05
323.3 K	5.2e-05
325.1 K	6.4e-05
325.3 K	6.5e-05
327.2 K	8.6e-05
331.3 K	0.000132
331.9 K	0.000152
333.3 K	0.00017
335.9 K	0.000236
338.4 K	0.000303
338.9 K	0.000323
341.3 K	0.000442

[1], Liquid, Transpiration method
Conditions	vapor or sublimation pressure [kPa]
350.7 K	0.00111
352.9 K	0.00129
356.9 K	0.00181
361 K	0.00247
365 K	0.00332
369 K	0.0046
373.1 K	0.00602
377.1 K	0.0082

Conditions	Normal melting temperature [°C]
[1], Crystal	76.1

Conditions	Molar enthalpy of transition or fusion [kcal/mol]
[2]	5.66

[CH]1C=CC=C1.[CH]1C=CC=C1.[Fe] [ferrocene]
[1], Crystal, Transpiration method
Conditions	vapor or sublimation pressure
289.7 K	0.00041 kPa
299.6 K	0.00116 kPa
303.5 K	0.00169 kPa
303.6 K	0.00172 kPa
307.5 K	0.00249 kPa
312.5 K	0.00388 kPa
317.6 K	0.00605 kPa
322.6 K	0.00945 kPa
322.7 K	0.00932 kPa
327.6 K	0.014 kPa
332.8 K	0.02131 kPa and 0.02096 kPa
337.9 K	0.03024 kPa
342.9 K	0.04379 kPa
348 K	0.06337 kPa
353.1 K	0.09205 kPa
358.3 K	0.1334 kPa
363.4 K	0.1803 kPa

Conditions	Normal melting temperature [°C]
[1], Crystal	174.7

Conditions	Molar enthalpy of transition or fusion [kcal/mol]
[2]	4.37
